# From US10781224B2, “Bis(oxymethyl)phosphinic acid and biogenic metal salts thereof as regulators of plant growth and development” (priority 2016, dated 2020)
# How the values were obtained:
# rice (Diamant variety) = assay: Rice seed treatment with BHMPA salts: germinating power; format: in vivo
# Description: (§1) Experimental versions—soaking seeds in BHMPA solutions and solutions of BHMPA Ca, Mg, Na, Co, Mn, Cu, and Zn salts at 1·10^−6-1·10^−12% concentrations (doses). The studies were conducted in laboratory in Petri dishes; seed bed—two layers of filter paper. 50 seeds soaked in water (control) and in the solutions of the tested compounds (experimental) were placed into each dish. Wheat, corn, and rice seeds were exposed for one hour.
# (§2) Seed germination energy and rate were calculated in percent as an arithmetic mean of the four experimental results (germination energy on the 4th day, wheat germination on the 8th day, rice and corn germination—on the 7th day). Germination was determined based on the germinating power indicators (length of the roots and sprouts and their wet and dry mass per 100 shoots).
# (§3) The effect of pre-sowing seed treatment with the claimed BHMPA salts of biogenic metals was studied on winter wheat (Vershin variety), corn (Krasnodar 385 MV variety), and rice (Diamant variety).
# The above data describe the seed viability only at the initial stage of germination, while the germination ability at the later stage of germination is defined by the initial germinating power. The method for the determination of the germinating power comprises measuring the height of the sprouts and primary roots, as well as the biomass and the dry mass thereof per 100 seedlings. [M. A. Kartuzova. Initial Germinating Power as Method of Biological Assessment of Seed Quality. Selection and Seed Farming, #2, 1953].
# [1] = tested on: corn (Krasnodar 385 MV variety); assay: Corn seed treatment with BHMPA salts: germination energy and germination rate; format: in vivo
# Description: Control—Soaking Seeds in Water;
# as §1
# Analysis was conducted according to the government standards GOST 12038-84 “Crop seeds. Technical conditions for determining the germination energy and germination rate”, GOST 12044-93 “Crop seeds. Methods for determining disease contamination.”
# as §2, §3
# [2] = rice seed treatment, comparison with Melaphen (Table XXXIII), solution 1 · 10^−9%
# [3] = rice seeds, solution concentration 1 · 10^−6%
# [4] = rice seeds, solution concentration 1 · 10^−7%
# [5] = rice seeds, solution concentration 1 · 10^−8%
# [6] = rice seeds, solution concentration 1 · 10^−9%
# [7] = rice seeds, solution concentration 1 · 10^−10%
# [8] = rice seeds, solution concentration 1 · 10^−11%
# [9] = rice seeds, solution concentration 1 · 10^−12%
# [10] = rice, vs control, 1·10^−9% solution
# [11] = comparative study vs Melaphen, 1·10^−7% solution
smiles,measurement,setting,value
"O.O.O=P([O-])(CO)CO.O=P([O-])(CO)CO.[Co+2] [Co-salt, Cobalt BHMPA Salt]",optimum concentration for treating rice seeds before sowing,rice (Diamant variety); rice,1·10^−9%
same,"Length, root",rice (Diamant variety); [2],6.4 cm
same,"Length, root, + % to control",rice (Diamant variety); [2],33%
same,"Length, sprout",rice (Diamant variety); [2],3.7 cm
same,"Length, sprout, + % to control",rice (Diamant variety); [2],42%
same,"Mass, dry, root",rice (Diamant variety); [2],0.25 g/100 plantlings
same,"Mass, dry, root, + % to control",rice (Diamant variety); [2],19%
same,"Mass, dry, sprout",rice (Diamant variety); [2],0.28 g/100 plantlings
same,"Mass, dry, sprout, + % to control",rice (Diamant variety); [2],12%
same,"Mass, wet, root",rice (Diamant variety); [2],1.37 g/100 plantlings
same,"Mass, wet, root, + % to control",rice (Diamant variety); [2],40%
same,"Mass, wet, sprout",rice (Diamant variety); [2],2.28 g/100 plantlings
same,"Mass, wet, sprout, + % to control",rice (Diamant variety); [2],51%
same,"Length, root",rice (Diamant variety); [3],5.1 cm
same,"Length, root, + % to control",rice (Diamant variety); [3],8.5%
same,"Length, sprout",rice (Diamant variety); [3],2.6 cm
same,"Length, sprout, + % to control",rice (Diamant variety); [3],13%
same,"Mass, dry, root",rice (Diamant variety); [3],0.19 g/100 plantlings
same,"Mass, dry, root, + % to control",rice (Diamant variety); [3],12%
same,"Mass, dry, sprout",rice (Diamant variety); [3],0.25 g/100 plantlings
same,"Mass, dry, sprout, + % to control",rice (Diamant variety); [3],25%
same,"Mass, wet, root",rice (Diamant variety); [3],0.89 g/100 plantlings
same,"Mass, wet, root, + % to control",rice (Diamant variety); [3],8.5%
same,"Mass, wet, sprout",rice (Diamant variety); [3],1.71 g/100 plantlings
same,"Mass, wet, sprout, + % to control",rice (Diamant variety); [3],15.5%
same,"Length, root",rice (Diamant variety); [4],5.4 cm
same,"Length, root, + % to control",rice (Diamant variety); [4],15%
same,"Length, sprout",rice (Diamant variety); [4],2.9 cm
same,"Length, sprout, + % to control",rice (Diamant variety); [4],26%
same,"Mass, dry, root",rice (Diamant variety); [4],0.22 g/100 plantlings
same,"Mass, dry, root, + % to control",rice (Diamant variety); [4],29%
same,"Mass, dry, sprout",rice (Diamant variety); [4],0.28 g/100 plantlings
same,"Mass, dry, sprout, + % to control",rice (Diamant variety); [4],40%
same,"Mass, wet, root",rice (Diamant variety); [4],0.94 g/100 plantlings
same,"Mass, wet, root, + % to control",rice (Diamant variety); [4],15%
same,"Mass, wet, sprout",rice (Diamant variety); [4],1.80 g/100 plantlings
same,"Mass, wet, sprout, + % to control",rice (Diamant variety); [4],22%
same,"Length, root",rice (Diamant variety); [5],5.7 cm
same,"Length, root, + % to control",rice (Diamant variety); [5],21%
same,"Length, sprout",rice (Diamant variety); [5],3.1 cm
same,"Length, sprout, + % to control",rice (Diamant variety); [5],35%
same,"Mass, dry, root",rice (Diamant variety); [5],0.24 g/100 plantlings
same,"Mass, dry, root, + % to control",rice (Diamant variety); [5],41%
same,"Mass, dry, sprout",rice (Diamant variety); [5],0.31 g/100 plantlings
same,"Mass, dry, sprout, + % to control",rice (Diamant variety); [5],55%
same,"Mass, wet, root",rice (Diamant variety); [5],1.07 g/100 plantlings
same,"Mass, wet, root, + % to control",rice (Diamant variety); [5],30%
same,"Mass, wet, sprout",rice (Diamant variety); [5],2.01 g/100 plantlings
same,"Mass, wet, sprout, + % to control",rice (Diamant variety); [5],36%
same,"Length, root",rice (Diamant variety); [6],6.2 cm
same,"Length, root, + % to control",rice (Diamant variety); [6],32%
same,"Length, sprout",rice (Diamant variety); [6],3.5 cm
same,"Length, sprout, + % to control",rice (Diamant variety); [6],52%
same,"Mass, dry, root",rice (Diamant variety); [6],0.26 g/100 plantlings
same,"Mass, dry, root, + % to control",rice (Diamant variety); [6],53%
same,"Mass, dry, sprout",rice (Diamant variety); [6],0.35 g/100 plantlings
same,"Mass, dry, sprout, + % to control",rice (Diamant variety); [6],75%
same,"Mass, wet, root",rice (Diamant variety); [6],1.15 g/100 plantlings
same,"Mass, wet, root, + % to control",rice (Diamant variety); [6],40%
same,"Mass, wet, sprout",rice (Diamant variety); [6],2.09 g/100 plantlings
same,"Mass, wet, sprout, + % to control",rice (Diamant variety); [6],41%
same,"Length, root",rice (Diamant variety); [7],5.8 cm
same,"Length, root, + % to control",rice (Diamant variety); [7],23%
same,"Length, sprout",rice (Diamant variety); [7],3.2 cm
same,"Length, sprout, + % to control",rice (Diamant variety); [7],39%
same,"Mass, dry, root",rice (Diamant variety); [7],0.23 g/100 plantlings
same,"Mass, dry, root, + % to control",rice (Diamant variety); [7],35%
same,"Mass, dry, sprout",rice (Diamant variety); [7],0.28 g/100 plantlings
same,"Mass, dry, sprout, + % to control",rice (Diamant variety); [7],40%
same,"Mass, wet, root",rice (Diamant variety); [7],1.03 g/100 plantlings
same,"Mass, wet, root, + % to control",rice (Diamant variety); [7],26%
same,"Mass, wet, sprout",rice (Diamant variety); [7],1.97 g/100 plantlings
same,"Mass, wet, sprout, + % to control",rice (Diamant variety); [7],33%
same,"Length, root",rice (Diamant variety); [8],5.6 cm
same,"Length, root, + % to control",rice (Diamant variety); [8],19%
same,"Length, sprout",rice (Diamant variety); [8],2.8 cm
same,"Length, sprout, + % to control",rice (Diamant variety); [8],22%
same,"Mass, dry, root",rice (Diamant variety); [8],0.20 g/100 plantlings
same,"Mass, dry, root, + % to control",rice (Diamant variety); [8],18%
same,"Mass, dry, sprout",rice (Diamant variety); [8],0.26 g/100 plantlings
same,"Mass, dry, sprout, + % to control",rice (Diamant variety); [8],30%
same,"Mass, wet, root",rice (Diamant variety); [8],0.94 g/100 plantlings
same,"Mass, wet, root, + % to control",rice (Diamant variety); [8],15%
same,"Mass, wet, sprout",rice (Diamant variety); [8],1.89 g/100 plantlings
same,"Mass, wet, sprout, + % to control",rice (Diamant variety); [8],28%
same,"Length, root",rice (Diamant variety); [9],5.2 cm
same,"Length, root, + % to control",rice (Diamant variety); [9],11%
same,"Length, sprout",rice (Diamant variety); [9],2.7 cm
same,"Length, sprout, + % to control",rice (Diamant variety); [9],17%
same,"Mass, dry, root",rice (Diamant variety); [9],0.19 g/100 plantlings
same,"Mass, dry, root, + % to control",rice (Diamant variety); [9],12%
same,"Mass, dry, sprout",rice (Diamant variety); [9],0.24 g/100 plantlings
same,"Mass, dry, sprout, + % to control",rice (Diamant variety); [9],20%
same,"Mass, wet, root",rice (Diamant variety); [9],0.88 g/100 plantlings
same,"Mass, wet, root, + % to control",rice (Diamant variety); [9],7%
same,"Mass, wet, sprout",rice (Diamant variety); [9],1.82 g/100 plantlings
same,"Mass, wet, sprout, + % to control",rice (Diamant variety); [9],23%
same,dry mass of the roots increased by,rice (Diamant variety); [10],53%
same,dry mass of the sprouts increased by,rice (Diamant variety); [10],75%
same,length of the root increased by,rice (Diamant variety); [10],32%
same,length of the sprout increased by,rice (Diamant variety); [10],52%
same,wet mass of the roots increased by,rice (Diamant variety); [10],40%
same,wet mass of the sprouts increased by,rice (Diamant variety); [10],41%
same,Germination energy,[1]; 1·10^−6% solution,80.0%
same,Germination rate,[1]; 1·10^−6% solution,82.2%
same,Germination energy,[1]; 1·10^−7% solution,84.3%
same,Germination rate,[1]; 1·10^−7% solution,90.0%
same,Germination rate,"[1]; 1·10^−7% solution, listed as Co",86.7%
same,Germination energy,[1]; 1·10^−8% solution,82.0%
same,Germination rate,[1]; 1·10^−8% solution,84.7%
same,Germination energy,[1]; 1·10^−9% solution,80.7%
same,Germination rate,[1]; 1·10^−9% solution,83.0%
same,Germination energy,[1]; 1·10^−10% solution,79.2%
same,Germination rate,[1]; 1·10^−10% solution,81.7%
same,Germination energy,[1]; 1·10^−11% solution,78.0%
same,Germination rate,[1]; 1·10^−11% solution,80.8%
same,Germination energy,[1]; 1·10^−12% solution,76.8%
same,Germination rate,[1]; 1·10^−12% solution,79.2%
same,Germination energy,[1]; [11],87.0%
same,Germination rate,[1]; [11],96.7%
